Assay results reported in patent US12692249B2, “WDR5 inhibitors and modulators” (Vanderbilt University, priority 2019, dated 2026).
Where two headings read alike, the source gives them in different places.

Columns and labels:
[1] = tested on: MV4:11 human cancer cell lines; experiment: Cellular viability / anti-proliferative assay, CellTiter-Glo, 5 day protocol; type: cell-based; conditions: Homo sapiens, MV4-11, 120 h, read-out: GI50 on cellular proliferation of MV4:11 human cancer cell lines
How it was run: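 Luminescent ATP-based viability (CellTiter-Glo) after a 5-day exposure gave GI50 via sigmoidal fitting, averaged over two or more replicates. Compounds spanned 22 two-fold steps down from 30 μM at 0.3% DMSO, on 200 MV-4-11 cells per well grown in IMDM plus 10% FBS.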

WDR5 = WDR5 (Homo sapiens, UniProt P61964); experiment: TR-FRET competition binding assay, displacement of 10mer-Thr-FAM MLL peptide probe from His-tagged WDR5; conditions: WDR5-His tag (residues 24-334) 2 nM; 10mer-Thr-FAM 150 nM; 60 min, room temperature; read-out: Ki for Inhibition of WDR5 by TR-FRET assay
Method: Time Resolved-Fluorescence Energy Transfer Competition Assay […] Excess 10mer-Thr-FAM probe was utilized with His-tagged WDR5 in conjunction with a commercial anti-His antibody containing a Terbium label. The LanthaScreenTM Elite Tb-anti-HIS Antibody from ThermoFisher Scientific was used for this purpose. […] The 10mer-Thr-FAM probe when bound to WDR5 will undergo a FRET interaction with the Tb-anti-HIS and emit at 520 nm. […] WDR[…] 10[…] used at 150 nM. […] A source plate is prepared using an Echo Liquid Handler, which distributes the compounds to the assay plate (white, flat-bottom; OptiPlate) in a 10-point, 5-fold dilution schemes with a top concentration of 5 μM, in a final volume of 20 μL. […] The final DMSO concentration in each well of the assay plate is 1% or lower. The plate is covered, shielded from light, and incubated for 60 minutes at room temperature with rocking. 10mer-Thr-FAM and Anti-His terbium antibody fluorescence is then measured on a Biotek Cytation 3 at excitation wavelength of 340 nm, and emission wavelengths of 495 nm and 520 nm. […] TR-FRET signal is plotted and IC50 and Ki values are calculated according to the formula of Wang Z. FEBS Lett (1996) 3, 245. Ki=[I]50/([L]50/Kd+[P]0/Kd+1) where [I]50 is the concentration of the free inhibitor at 50% inhibition, [L]50 is the concentration of the free labeled ligand at 50% inhibition, [P]0 is the concentration of the free protein at 0% inhibition, Kd represents the dissociation constant of the FITC-MLL or 10mer-Thr-FAM probe for WDR5. Total fluorescence is also measured, to rule out compounds that are inherently fluorescent or able to act as quenchers in the assay. TR-FRET Binding Assay

[2] = MV4:11 cells, 5 day incubation, CellTiter-Glo, mean of at least two replicates

| Structure (SMILES) | GI50 [1, 2] | Ki (WDR5) | GI50 [1] |
| --- | --- | --- | --- |
| COc1ccc(N2CCc3c(cc(Cn4ccnc4)cc3-c3cn(C)nc3C(F)(F)F)C2=O)c2cc(C)cnc12 [Example 23, 7-((1H-Imidazol-1-yl)methyl)-2-(8-methoxy-3-methylquinolin-5-yl)-5-(1-methyl-3-(trifluoromethyl)-1H-pyrazol-4-yl)-3,4-dihydroisoquinolin-1(2H)-one] | 210000 pM | < 20 pM |  |
| CCn1cc(N2CCc3c(cc(Cn4ccnc4)cc3-c3cn(C)nc3C(F)(F)F)C2=O)c2cc(OC)cnc21 [Example 84, 7-((1H-Imidazol-1-yl)methyl)-2-(1-ethyl-5-methoxy-1H-pyrrolo[2,3-b]pyridin-3-yl)-5-(1-methyl-3-(trifluoromethyl)-1H-pyrazol-4-yl)-3,4-dihydroisoquinolin-1(2H)-one] | 39000 pM | < 20 pM |  |
| COc1cc(C(=O)N2CCCC2)c2nccc(N3CCc4c(cc(Cn5ccnc5)cc4-c4cn(C)nc4C(F)(F)F)C3=O)c2c1 [Example 44, 7-((1H-Imidazol-1-yl)methyl)-2-(6-methoxy-8-(pyrrolidine-1-carbonyl)quinolin-4-yl)-5-(1-methyl-3-(trifluoromethyl)-1H-pyrazol-4-yl)-3,4-dihydroisoquinolin-1(2H)-one] | 353000 pM | < 20 pM |  |
| CCc1cc(N2CCOCC2)c2nccc(N3CCc4c(cc(Cn5ccnc5)cc4-c4cn(C)nc4C(F)(F)F)C3=O)c2c1 [Example 36, 7-((1H-Imidazol-1-yl)methyl)-2-(6-ethyl-8-morpholinoquinolin-4-yl)-5-(1-methyl-3-(trifluoromethyl)-1H-pyrazol-4-yl)-3,4-dihydroisoquinolin-1(2H)-one] | 23000 pM | < 20 pM |  |
| COc1cc(C)cc2c(N3CCc4c(cc(Cn5ccnc5)cc4-c4cn(C)nc4C(F)(F)F)C3=O)ccnc12 [Example 19, 7-((1H-Imidazol-1-yl)methyl)-2-(8-methoxy-6-methylquinolin-4-yl)-5-(1-methyl-3-(trifluoromethyl)-1H-pyrazol-4-yl)-3,4-dihydroisoquinolin-1(2H)-one] | 26000 pM | 20 pM |  |
| COc1cc(OC)c2nccc(N3CCc4c(cc(Cn5ccnc5)cc4-c4cn(C)nc4C(F)(F)F)C3=O)c2c1 [Example 17, 7-((1H-Imidazol-1-yl)methyl)-2-(6,8-dimethoxyquinolin-4-yl)-5-(1-methyl-3-(trifluoromethyl)-1H-pyrazol-4-yl)-3,4-dihydroisoquinolin-1(2H)-one] | < 20000 pM | 25 pM |  |
| CCc1ccc2c(N3CCc4c(cc(Cn5ccnc5)cc4-c4cn(C)nc4C(F)(F)F)C3=O)cccc2n1 [Example 107] | 452000 pM | 21 pM |  |
| CCn1cc(-c2cc(Cn3ccnc3)cc3c2CCN(c2cncc4ccc(C)cc24)C3=O)c(C(F)(F)F)n1 [Example 54, 7-((1H-Imidazol-1-yl)methyl)-5-(1-ethyl-3-(trifluoromethyl)-1H-pyrazol-4-yl)-6′-methyl-3,4-dihydro-1H-[2,4′-biisoquinolin]-1-one] | 71000 pM | 28 pM |  |
| CCc1cc2c(N3CCc4c(cc(Cn5ccnc5)cc4-c4cn(C)nc4C(F)(F)F)C3=O)cccc2nc1C [Example 117, 7-((1H-Imidazol-1-yl)methyl)-2-(3-ethyl-2-methylquinolin-5-yl)-5-(1-methyl-3-(trifluoromethyl)-1H-pyrazol-4-yl)-3,4-dihydroisoquinolin-1(2H)-one] |  | 36 pM | 64000 pM |
| CCc1cc(C(=O)NCC2CN(C(=O)C3CCOCC3)C2)c2nccc(N3CCc4c(cc(Cn5ccnc5)cc4-c4cn(C)nc4C(F)(F)F)C3=O)c2c1 [Example 233, 4-(7-((1H-Imidazol-1-yl)methyl)-5-(1-methyl-3-(trifluoromethyl)-1H-pyrazol-4-yl)-1-oxo-3,4-dihydroisoquinolin-2(1H)-yl)-6-ethyl-N-((1-(tetrahydro-2H-pyran-4-carbonyl)azetidin-3-yl)methyl)quinoline-8-carboxamide] | 26000 pM | < 20 pM |  |

Continued, in another order:

| GI50 [1, 2] | Ki (WDR5) | Structure (SMILES) | GI50 [1] |
| --- | --- | --- | --- |
| < 20000 pM | 21 pM | CCc1cc(N2CCN(C)CC2)c2nc(C)cc(N3CCc4c(cc(Cn5ccnc5)cc4-c4cn(C)nc4C(F)(F)F)C3=O)c2c1 [Example 110, 7-((1H-imidazol-1-yl)methyl)-2-(6-ethyl-2-methyl-8-(4-methylpiperazin-1-yl)quinolin-4-yl)-5-(1-methyl-3-(trifluoromethyl)-1H-pyrazol-4-yl)-3,4-dihydroisoquinolin-1(2H)-one] |  |
| < 20000 pM | 20 pM | CCc1cc(N2C[C@H]3CN(C)C[C@H]3C2)c2nc(C)cc(N3CCc4c(cc(Cn5ccnc5)cc4-c4cn(C)nc4C(F)(F)F)C3=O)c2c1 [Example 197, 7-((1H-Imidazol-1-yl)methyl)-2-(6-ethyl-2-methyl-8-((3aR,6aS)-5-methylhexahydropyrrolo[3,4-c]pyrrol-2(1H)-yl)quinolin-4-yl)-5-(1-methyl-3-(trifluoromethyl)-1H-pyrazol-4-yl)-3,4-dihydroisoquinolin-1(2H)-one] |  |
| < 20000 pM | < 20 pM | CCc1cc(C(=O)NCCNC(=O)c2cnccn2)c2nccc(N3CCc4c(cc(Cn5ccnc5)cc4-c4cn(C)nc4C(F)(F)F)C3=O)c2c1 [Example 209, 4-(7-((1H-Imidazol-1-yl)methyl)-5-(1-methyl-3-(trifluoromethyl)-1H-pyrazol-4-yl)-1-oxo-3,4-dihydroisoquinolin-2(1H)-yl)-6-ethyl-N-(2-(pyrazine-2-carboxamido)ethyl)quinoline-8-carboxamide] |  |
| < 20000 pM | 24 pM | COc1cnc2cc(C)cc(N3CCc4c(cc(Cn5ccnc5N)cc4-c4cn(C)nc4C(F)(F)F)C3=O)c2c1 [Example 221, 7-((2-Amino-1H-imidazol-1-yl)methyl)-2-(3-methoxy-7-methylquinolin-5-yl)-5-(1-methyl-3-(trifluoromethyl)-1H-pyrazol-4-yl)-3,4-dihydroisoquinolin-1(2H)-one] |  |
| < 20000 pM | 23 pM | COc1ccc2nc(C)cc(N3CCc4c(cc(Cn5ccnc5N)cc4-c4cn(C)nc4C(F)(F)F)C3=O)c2c1 [Example 121, 7-((2-Amino-1H-imidazol-1-yl)methyl)-2-(6-methoxy-2-methylquinolin-4-yl)-5-(1-methyl-3-(trifluoromethyl)-1-1H-pyrazol-4-yl)-3,4-dihydroisoquinolin-1(2H)-one] |  |
| < 20000 pM | < 20 pM | COc1cc(CN2CCCC2)c2nccc(N3CCc4c(cc(Cn5ccnc5)cc4-c4cn(C)nc4C(F)(F)F)C3=O)c2c1 [Example 138, 7-((1H-Imidazol-1-yl)methyl)-2-(6-methoxy-8-(pyrrolidin-1-ylmethyl)quinolin-4-yl)-5-(1-methyl-3-(trifluoromethyl)-1H-pyrazol-4-yl)-3,4-dihydroisoquinolin-1(2H)-one] |  |
| < 20000 pM | < 20 pM | COc1ccc2c(c1)[C@@H](N1CCc3c(cc(Cn4ccnc4C)cc3-c3cn(C)nc3C(F)(F)F)C1=O)CCO2 [Example 69, (S)-2-(6-Methoxychroman-4-yl)-7-((2-methyl-1H-imidazol-1-yl)methyl)-5-(1-methyl-3-(trifluoromethyl)-1H-pyrazol-4-yl)-3,4-dihydroisoquinolin-1(2H)-one] |  |
| < 20000 pM | 21 pM | COc1cc(CN2CCN(C(C)=O)CC2)c2nccc(N3CCc4c(cc(Cn5ccnc5)cc4-c4cn(C)nc4C(F)(F)F)C3=O)c2c1 [Example 127, 7-((1H-Imidazol-1-yl)methyl)-2-(8-((4-acetylpiperazin-1-yl)methyl)-6-methoxyquinolin-4-yl)-5-(1-methyl-3-(trifluoromethyl)-1H-pyrazol-4-yl)-3,4-dihydroisoquinolin-1(2H)-one] |  |
| < 20000 pM | 29 pM | COc1cc2c(N3CCc4c(cc(Cn5ccnc5)cc4-c4cn(C)nc4C(F)(F)F)C3=O)cc(C)cc2nc1C [Example 155, 7-((1H-Imidazol-1-yl)methyl)-2-(3-methoxy-2,7-dimethylquinolin-5-yl)-5-(1-methyl-3-(trifluoromethyl)-1H-pyrazol-4-yl)-3,4-dihydroisoquinolin-1(2H)-one] |  |
| < 20000 pM | 30 pM | CCc1cc(N2CCN3CCOC[C@@H]3C2)c2nc(C)cc(N3CCc4c(cc(Cn5ccnc5)cc4-c4cn(C)nc4C(F)(F)F)C3=O)c2c1 [Example 134, (S)-7-((1H-imidazol-1-yl)methyl)-2-(6-ethyl-8-(hexahydropyrazino[2,1-c][1,4]oxazin-8(1H)-yl)-2-methylquinolin-4-yl)-5-(1-methyl-3-(trifluoromethyl)-1H-pyrazol-4-yl)-3,4-dihydroisoquinolin-1(2H)-one] |  |
